Source: ChEMBL document CHEMBL4020813, “The ProTide Prodrug Technology: From the Concept to the Clinic” (J Med Chem, 2018)

Experiments:
[1] = Cytotoxicity against human HuH7 after 4 to 5 days by Cell-Titer Glo viability assay; type: cell-based, Huh-7; conditions: HuH7 cells
Ebolavirus [2] = test: Antiviral activity against Ebolavirus infected in human HeLa cells after 48 hrs by immuno-staining assay; type: functional, cell-based; conditions: Orthoebolavirus
Ebolavirus [3] = test: Antiviral activity against Ebolavirus infected in human primary macrophages after 48 hrs by immuno-staining assay; type: functional; conditions: Orthoebolavirus
[4] = Cytotoxicity against human primary macrophages after 4 to 5 days by Cell-Titer Glo viability assay; type: cell-based, Macrophage
[5] = Cytotoxicity against human HeLa after 4 to 5 days by Cell-Titer Glo viability assay; type: cell-based; conditions: HeLa cells
Ebolavirus [6] = test: Antiviral activity against Ebolavirus infected in human HuH7 cells after 3 days by end point dilution assay; type: functional, cell-based; conditions: Orthoebolavirus, Huh-7, 72 h
[7] = Tmax in po dosed human; type: ADME, organism-based; conditions: in vivo
[8] = Half life in po dosed human; type: ADME, organism-based; conditions: in vivo
[9] = Half life in human MT2 cells by HPLC analysis
[10] = Half life in beagle dog intestine
[11] = Plasma concentration in dog at 5 mg/kg at 1 hr post dose
in vivo [12] = conditions: dog, po, 2 mg/kg
in vivo [13] = conditions: dog, po, 20 mg/kg
[14] = Half life in human; type: ADME
[15] = Plasma concentration in dog at 5 mg/kg at 0.14 hrs post dose
[16] = Half life in beagle dog hepatic S9 fraction
[17] = Oral bioavailability in portal vein cannulated dog; type: ADME, organism-based, Canis lupus familiaris; conditions: in vivo
[18] = Fraction absorbed in po dosed portal vein cannulated dog; type: ADME, organism-based, Canis lupus familiaris; conditions: in vivo, read-out: Fabs
Plasma = test: Protein binding in plasma of patient with end stage renal disease; type: ADME, cell-free; conditions: human
[19] = Protein binding in human plasma; type: ADME, cell-free; conditions: read-out: PPB (converted)
[20] = Fraction absorbed in human; type: ADME; conditions: read-out: Fabs
[21] = Drug recovery in human urine at 100 to 800 mg; type: ADME; conditions: read-out: Drug recovery
[22] = Renal clearance in human at 100 to 800 mg; type: ADME
HT-29 = test: Antitumor activity against human HT-29 cells xenografted in nude mouse assessed as tumor growth inhibition relative to control; type: functional
Homo sapiens [23] = organism: Homo sapiens; test: Cmax in human assessed as dFdCTP level; type: ADME
Homo sapiens [24] = organism: Homo sapiens; test: Reduction in tumor growth in patient with solid malignancies; type: functional
Ebolavirus [25] = test: Antiviral activity against Ebolavirus H. sapiens-tc/COD/1995/Kikwit infected in rhesus monkey assessed as host survival at 3 mg/kg, iv administered as bolus dose; type: functional; conditions: Orthoebolavirus, in Macaca mulatta
[26] = Half life in rhesus monkey plasma at 10 mg/kg, iv administered as bolus dose by LC-MS/MS analysis; type: ADME, organism-based, Macaca mulatta
[27] = Half life in human primary macrophages assessed as nucleoside triphosphate level at 10 uM; type: ADME, cell-based; conditions: macrophage
Ebolavirus [28] = test: Antiviral activity against Ebolavirus H. sapiens-tc/COD/1995/Kikwit infected in rhesus monkey assessed as host survival at 10 mg/kg, iv administered as bolus dose; type: functional; conditions: Orthoebolavirus, in Macaca mulatta
JM1 = test: Cytotoxicity against human JM1 cells; type: cell-based
[29] = tested on: Human immunodeficiency virus 1; test: Antiviral activity against HIV1 infected in human JM1 cells; type: functional, cell-based; conditions: Human immunodeficiency virus 1, JM1

Q: What does the source list for N#C[C@@]1(c2ccc3c(N)ncnn23)O[C@H](CO)[C@@H](O)[C@H]1O [GS-441524]?
A: CC50 [1]: > 20 µM; EC50 (Ebolavirus [2]): > 20 µM; EC50 (Ebolavirus [3]): > 20 µM; CC50 [4]: > 20 µM; CC50 [5]: > 20 µM; EC50 (Ebolavirus [6]): 1.5 µM

Q: Which Tmax [7] does the source give for C[C@]1(F)[C@H](O)[C@@H](CO)O[C@H]1n1ccc(=O)[nH]c1=O here?
A: Its Tmax is 120 to 240 min.

Q: And the half-life [8]?
A: The half-life was 28.8 to 45 min.

Q: For CC(C)OC(=O)[C@H](C)N[P@](=O)(CO[C@H](C)Cn1cnc2c(N)ncnc21)Oc1ccccc1 [TENOFOVIR ALAFENAMIDE], which half-life [9] is on record?
A: Its half-life is 28.3 min.

Q: What about the half-life [10] of the same molecule?
A: The half-life was 31 min.

Q: And the concentration at 1 h [11]?
A: The concentration at 1 h was 18 µM.

Q: What about the bioavailability (in vivo [12]) of the same molecule?
A: Its bioavailability is 1.7%.

Q: What about the bioavailability (in vivo [13]) of the same molecule?
A: The bioavailability was 24.7%.

Q: What about the half-life [14] of the same molecule?
A: The half-life was 92 min.

Q: And the concentration at […] [15]?
A: The concentration at […] was 1.58 µM.

Q: What about the half-life [16] of the same molecule?
A: Its half-life is 31 min.

Q: What does the source list for CC(C)OC(=O)[C@H](C)N[P@](=O)(OC[C@H]1O[C@@H](n2ccc(=O)[nH]c2=O)[C@](C)(F)[C@@H]1O)Oc1ccccc1 [SOFOSBUVIR]?
A: Tmax [7]: 30 to 120 min; bioavailability [17]: 9.9%; Fa [18]: 36%; PPB (Plasma): 85%; fraction unbound [19]: 0.18; Fa [20]: > 80%; dose excreted [21]: 3.5%; CL renal [22]: 238 mL/min

Q: With O=c1[nH]cc(F)c(=O)[nH]1 [FLUOROURACIL] as the molecule, how does the TGI (HT-29) read?
A: Its TGI is 25%.

Q: For C[C@H](NP(=O)(OC[C@H]1O[C@@H](n2cc(F)c(=O)[nH]c2=O)C[C@@H]1O)Oc1cccc2ccccc12)C(=O)OCc1ccccc1 (stereo partly specified) [FOSIFLOXURIDINE NAFALBENAMIDE], which TGI (HT-29) is on record?
A: The TGI was 47%.

Q: Which Cmax (Homo sapiens [23]) does the source give for C[C@H](NP(=O)(OC[C@H]1O[C@@H](n2ccc(N)nc2=O)C(F)(F)[C@@H]1O)Oc1ccccc1)C(=O)OCc1ccccc1 (stereo partly specified) [FOSGEMCITABINE PALABENAMIDE] here?
A: Its Cmax is 475 µM.

Q: What about the half-life [14] of the same molecule?
A: Its half-life is 498 min.

Q: What about the TGI (Homo sapiens [24]) of the same molecule?
A: Its TGI is greater than 30%.

Q: Which results are given for CCC(CC)COC(=O)[C@H](C)N[P@](=O)(OC[C@H]1O[C@@](C#N)(c2ccc3c(N)ncnn23)[C@H](O)[C@@H]1O)Oc1ccccc1?
A: survival at 3 mg/kg (Ebolavirus [25]): 50%; CC50 [1]: > 20 µM; EC50 (Ebolavirus [2]): 0.14 µM; EC50 (Ebolavirus [3]): 0.086 µM; CC50 [4]: > 20 µM; half-life [26]: 23.4 min; CC50 [5]: > 20 µM; EC50 (Ebolavirus [6]): 0.07 µM; t1/2 [27]: 960 min; survival at 10 mg/kg (Ebolavirus [28]): 100%

Q: For COC(=O)[C@H](C)NP(=O)(OC[C@H]1O[C@@H](n2cc(C)c(=O)[nH]c2=O)C[C@@H]1N=[N+]=[N-])Oc1ccc(OC)cc1 (stereo partly specified), which IC50 (JM1) is on record?
A: Its IC50 is 100 µM.

Q: What about the EC50 [29] of the same molecule?
A: Its EC50 is 0.8 µM.
